These results are taken from US10022382B2, “RNA polymerase I inhibitors and uses thereof” (Tel HaShomer Medical Research Infrastructure and Services …, priority 2013, dated 2018).

One data set concerns pre-rRNA. Briefly: Q-RT-PCR of pre-rRNA in splenocytes of treated EAE mice. It counts as in vivo. Conditions: 12.5 mg/Kg, 17 days following immunization. On the procedure: RNA Extraction: For in vivo experiments spleens from EAE mice were isolated at day 17 post immunization and splenocytes were re-stimulated for 72 h hours in the presence of 5.0 μg/ml MOG35-55. For in-vitro experiments spleens from intact mice were isolated and splenocytes were stimulated with for 72 h in the presence of PHA. RNA was extracted from splenocytes of both the in-vitro and in-vivo experiments by robotic ABI PRISM, Applied biosystem 6100 Nucleic Acid Prep Station. To avoid genomic DNA contamination samples were treated with DNase I (Roche). The quality and integrity of the total RNA preparation was confirmed using a NanoDrop 2000c Spectrophotometer (Thermo Scientific).
Quantitative RT-PCR of Pre-rRNA: Complementary DNA was obtained from the extracted RNA by the High capacity cDNA reverse transcription kit (Applied Biosystems, CA, USA) following manufacturer's instructions. To confirm the role of POL1 pathway suppression by POL1-Inhibitors, the expression level of pre-rRNA transcript, a key gene of the RNA polymerase I pathway, was evaluated by Q-RT-PCR (n=3 per group). All PCR reactions were performed on a Light Cycler 480 instrument (Roche Diagnostic). The pre-rRNA, specific primers used were Forward: […] (SEQ ID NO: 69) and Reverse: […] (SEQ ID NO: 70) with a quantification probe (Roche, Probe ID #1, cat. no. 04684974001). […]

The next data set deals with Pol II. Kind of data set: Cell-free polymerase II transcription from CMV promoter. Conditions: 200 nM. It counts as biochemical, human. On the procedure:
Transcription by polymerase II from CMV promoter was tested similarly using the template provided HeLa scribe kit of Promega, further processing as described above and analysis of transcript with template specific primers: POL II forward primer: ctatgcgcacccgttctc (SEQ ID NO: 73), Pol II reverse primer: gtagcgaagcgagcagga (SEQ ID NO: 74). Probe ID: #70, cat. no. 04688937001 (Roche), was used for both reactions.

The subject of a further data set is C57BL/6J mice. Briefly: Toxicity (LD50, survival) in the EAE model, continuous administration. It counts as in vivo. The method, then:
(§1) The animals were evaluated for signs of acute toxicity and survival during the entire administration period in the EAE model.
(§2) The therapeutic index (LD50/ED50), which is also referred to herein as Safety Margin (SM), was then determined based on the EAE model.

Experiment in data set [1]: as above
In kind it is in vivo. Conditions: C57BL/6J, mouse, in vivo, oral; EAE prevention model, continuous administration. On the procedure:
as §1, §2

Data set [2] in a line: Bioavailability: serum level after oral gavage or IV. Conditions: for time to maximal concentration: healthy C57B6J female mice. It counts as in vivo, mice. The method, then: Bioavailability: Determination of the level of the tested compound in serum was done following oral gavage. Blood samples (0.5 mL) were collected and immediately centrifuged at 5,000 rpm for 10 minutes. The serum was separated and stored at −20° C. until fluoprometric analysis by Tecan SpectraFluor, based on the specific excitation/emission values of the tested compound was conducted. The pharmacokinetic parameters including serum maximum concentration (Cmax), the time needed to reach Cmax (Tmax), and half-life (T1/2), were calculated to evaluate oral bioavailability. The serum concentration after oral gavages was calculated according to a calibration curve for each compound in the serum. The Pharmacokinetic properties of compound 10 were quantified by the LCMS method described below. The concentration of Compound 10 was calculated with a calibration curve. The serum was prepared for analysis using protein precipitation. 15 μL of water were added to 15 μL of serum and a H2O: MeOH: CHCl3 (90:120:30) solution was added. The supernatant was subjected to LCMS analysis equipped with a PHENOMENEX® C-18 RP column.

A further data set can be described thus: Solubility in mQ water. In kind it is physicochemical. Conditions: 50 mg in 0.5 mL mQ water, room temperature. On the procedure: The solubility of Compounds 1 and 10 was determined by dissolving 50 mg of the tested compound in 0.5 mL of mQ water, at room temperature.
Another data set has as its system Pol I. Kind of data set: Cell-free Pol I transcription assay. In kind it is biochemical, human. The note with it: 200 nM. The method, then: Cell-free Pol I transcription assay was performed according to Drygin et al. (2010). Briefly, a reaction mixture consisting of 8 units of HeLa scribe nuclear extract (Promega) in transcription buffer and MgCl2 (4 mM) was combined with POL1-Inhibitor (200 nM) and […] a-amanitin (Sigma) for 20 minutes at ambient temperature. Following, 10 ng DNA template (GENEWIZ, Inc.; http://www(dot)genewiz(dot)com(dot)cn) corresponding to the (−160/+350) region on human rDNA was added and the reaction was incubated for 5 minutes at ambient temperature. Transcription was initiated by adding rNTPs mix to a final concentration of 1 mM and the reaction was incubated for 1 hour at 30° C. Afterward, DNase I (Ambion kit) was added and the reaction was further incubated for 25 minutes at 37° C. DNase activity was terminated with adding an inactivation solution according the manufacturer's protocol. The samples were then subjected for RNA isolation (following the same procedure described in Example 3 hereinabove). Pellets of RNA were re-suspended in DEPC-treated double distilled water and subjected for reverse transcription by a High capacity kit (Applied Biosystems). The resultant transcripts were analyzed by qRT-PCR in a Light cycler 480 system using primer pairs (Sigma) and probe for real-time PCR. […]

[3] abbreviates: EAE mice, 30 mg/kg every alternate day until disease onset.

As to `Cc1cnc(CNC(=O)c2/c(=N/c3ccccc3)c3ccc(N4CCCN(C)CC4)nc3n3c2sc2ccccc23)cn1` [Compound 10, (E)-2-(4-methyl-1,4-diazepan-1-yl)-N-((5-methylpyrazin-2-yl)methyl)-5-(phenylimino)-5H-benzo[4,5]thiazolo[3,2-a][1,8]naphthyridine-6-carboxamide], the “decrease in pre-rRNA mRNA levels compared to vehicle” value with pre-rRNA was 5.9 folds. The “effect on Pol II transcription from the CMV promoter” value in the data set on Pol II is given as 5%. This compound also registered a survival in the data set with C57BL/6J mice (C57BL/6J, mouse, in vivo, 28 days) of 100%. Moreover, in the data set with C57BL/6J mice (setting [3]), the behavioral changes result was “No behavioral changes”, the survival result is given as “No effect on survival” and the tolerability entry is “well tolerated”. The signs of toxicity entry in the data set with C57BL/6J mice (all treated groups, EAE model, alternate days) was “without apparent signs of toxicity”. In data set [1], the median lethal dose (LD50) worked out at 30 mg/kg. In addition, in data set [2] (12.5 mg/kg, up to 168 h), the “bioavailability AUC(oral)/AUC(IV)” value stood at 72%. Further, in data set [2] (IV, 12.5 mg/kg), the “time to maximal concentration” value worked out at 0.5 h. Also, in data set [2] (mice serum, oral gavage), the “Cmax compared to Compound 1” value is “higher”, the “Tmax compared to Compound 1” value was “lower” and the “clearance compared to Compound 1” value is “faster”. Further, in data set [2] (oral and IV, 12.5 mg/kg), the absorption result is “rapidly absorbed”. Also, the “time to maximal concentration” value in data set [2] (oral, 12.5 mg/kg) came to 2 h. Moreover, in the data set “Solubility in mQ water”, the solubility result was “immediately dissolved in the aqueous solution”. In addition, the “inhibition of Pol I transcription from the pre-rRNA promoter” value in the data set with Pol I is “about 40%”.

The term LD50 denotes the dose at which mortality reaches 50%. Read a high LD50 as a less toxic substance.
